{"source": "patent US5110911A", "about": "“Human tumor-associated Thomsen-Friedenreich antigen” (Biomira, Inc., priority 1989, dated 1992)", "molecules": {"B1": {"name": "PNA: lectin extracted from the peanut (Arachis hypogaea) which recognizes the terminal disaccharide of the TF-antigen (protein, UniProt P02872 24-273, looked up)", "Galactose-binding lectin": "AETVSFNFNSFSEGNPAINFQGDVTVLSNGNIQLTNLNKVNSVGRVLYAMPVRIWSSATGNVASFLTSFSFEMKDIKDYDPADGIIFFIAPEDTQIPAGSIGGGTLGVSDTKGAGHFVGVEFDTYSNSEYNDPPTDHVGIDVNSVDSVKTVPWNSVSGAVVKVTVIYDSSTKTLSVAVTNDNGDITTIAQVVDLKAKLPERVKFGFSASGSLGGRQIHLIRSWSFTSTLITTTRRSIDNNEKKIMNMASA"}}, "key": {"49H.8": {"system": "49H.8", "details": "inhibitor concentration of 2 mg/ml; cited from earlier work"}, "[1]": {"system": "antigen capture by MAb 49H.8", "assay": "Inhibition of the antigen capture by synthetic carbohydrate haptens", "format": "binding", "protocol": "(§1) Breakable strips of microtitre wells were coated with MAb […].8 or a control antibody (MOPC-104E), 1 μg/well, by overnight incubation at 4° C. The wells were then serially incubated with FBS 5% in PBS at 37° C. for 30 minutes, with antigen solution at 37° C. for two hours, and with radioiodinated PNA (2×10^5 cpm/well) at room temperature for two hours. The wells were washed with PBS containing 0.05% Tween-20 after each of the above steps. Each well was counted for ^125 I activity using a gamma counter."}, "[2]": {"system": "TF Antigen Binding with MAb 49H.8 (LS174T Conditioned Medium)", "assay": "Inhibition of TF antigen binding with MAb 49H.8 by synthetic carbohydrates in SRIA, LS174T conditioned medium", "design": "species or system human", "protocol": "as §1"}, "[3]": {"system": "TF Antigen Binding with MAb 49H.8 (PE89)", "assay": "Inhibition of TF antigen binding with MAb 49H.8 by synthetic carbohydrates in SRIA, PE89", "design": "species or system human", "protocol": "as §1"}, "[4]": {"system": "TF Antigen Binding with MAb 49H.8 (Ta3-Ha Conditioned Medium)", "assay": "Inhibition of TF antigen binding with MAb 49H.8 by synthetic carbohydrates in SRIA, Ta3-Ha conditioned medium", "design": "species or system murine", "protocol": "as §1"}, "[5]": {"system": "TF Antigen Binding with MAb 49H.8 (647V Conditioned Medium)", "assay": "Inhibition of TF antigen binding with MAb 49H.8 by synthetic carbohydrates in SRIA, 647V conditioned medium", "design": "species or system human", "protocol": "as §1"}, "carcinoma cell lines": {"system": "carcinoma cell lines", "details": "all nine cell lines named; cited from earlier work"}}}
{"molecule": "OC[C@H]1OC(O)[C@H](O)[C@@H](O)[C@H]1O", "note": "(stereo partly drawn) [D-Gal]", "values": [{"measurement": "inhibition in binding of 49H.8 to neuraminidase-treated erythrolytes", "setting": "49H.8", "value": 5, "unit": "%"}]}
{"molecule": "OC[C@H]1O[C@@H](Oc2ccccc2)[C@H](O)[C@@H](O)[C@H]1O", "note": "[Phenyl-β-D-galactoside]", "values": [{"measurement": "Inhibition of the positive reactivity in the sandwich assay (in words)", "setting": "[1]", "value": "inhibited"}, {"measurement": "% Inhibition ± SD, LS174T Conditioned Medium", "setting": "[2]; inhibitor 5 mM", "value": 86.95, "unit": "%"}, {"measurement": "% Inhibition ± SD, LS174T Conditioned Medium", "setting": "[2]; inhibitor 10 mM", "value": 95.91, "unit": "%"}, {"measurement": "% Inhibition ± SD, PE89", "setting": "[3]; inhibitor 5 mM", "value": 45.48, "unit": "%"}, {"measurement": "% Inhibition ± SD, PE89", "setting": "[3]; inhibitor 10 mM", "value": 69.04, "unit": "%"}, {"measurement": "% Inhibition ± SD, Ta3-Ha Conditioned Medium", "setting": "[4]; inhibitor 5 mM", "value": 69.40, "unit": "%"}, {"measurement": "% Inhibition ± SD, Ta3-Ha Conditioned Medium", "setting": "[4]; inhibitor 10 mM", "value": 96.25, "unit": "%"}, {"measurement": "% Inhibition ± SD, 647V Conditioned Medium", "setting": "[5]; inhibitor 5 mM", "value": 66.60, "unit": "%"}, {"measurement": "% Inhibition ± SD, 647V Conditioned Medium", "setting": "[5]; inhibitor 10 mM", "value": 90.12, "unit": "%"}]}
{"molecule": "OC[C@H]1O[C@@H](Oc2ccccc2)[C@H](O)[C@@H](O)[C@@H]1O", "note": "[Phenyl-β-D-glucoside]", "values": [{"measurement": "Inhibition of the positive reactivity in the sandwich assay (in words)", "setting": "[1]", "value": "did not show any inhibition"}, {"measurement": "% Inhibition ± SD, LS174T Conditioned Medium", "setting": "[2]; inhibitor 5 mM", "value": -7.15, "unit": "%"}, {"measurement": "% Inhibition ± SD, LS174T Conditioned Medium", "setting": "[2]; inhibitor 10 mM", "value": -1.67, "unit": "%"}, {"measurement": "% Inhibition ± SD, PE89", "setting": "[3]; inhibitor 5 mM", "value": -6.41, "unit": "%"}, {"measurement": "% Inhibition ± SD, PE89", "setting": "[3]; inhibitor 10 mM", "value": -4.61, "unit": "%"}, {"measurement": "% Inhibition ± SD, Ta3-Ha Conditioned Medium", "setting": "[4]; inhibitor 5 mM", "value": 3.92, "unit": "%"}, {"measurement": "% Inhibition ± SD, Ta3-Ha Conditioned Medium", "setting": "[4]; inhibitor 10 mM", "value": 1.38, "unit": "%"}, {"measurement": "% Inhibition ± SD, 647V Conditioned Medium", "setting": "[5]; inhibitor 5 mM", "value": -3.00, "unit": "%"}, {"measurement": "% Inhibition ± SD, 647V Conditioned Medium", "setting": "[5]; inhibitor 10 mM", "value": 0.58, "unit": "%"}]}
{"molecule": "CC(=O)N[C@@H]1[C@@H](O[C@@H]2O[C@H](CO)[C@H](O)[C@H](O)[C@H]2O)[C@@H](O)[C@@H](CO)O[C@@H]1O", "note": "[TF disaccharide, D-β-Gal (1-3)-α-GalNAc]", "values": [{"measurement": "inhibition in binding of 49H.8 to neuraminidase-treated erythrolytes", "setting": "49H.8", "value": 33, "unit": "%"}]}
{"molecule": "CC(=O)N[C@@H]1[C@@H](O[C@@H]2O[C@H](CO)[C@H](O)[C@H](O)[C@H]2O)[C@@H](O)[C@@H](CO)O[C@H]1O", "note": "[beta anomer]", "values": [{"measurement": "inhibition in binding of 49H.8 to neuraminidase-treated erythrolytes", "setting": "49H.8", "value": 29, "unit": "%"}]}
{"molecule": "O=[N+]([O-])c1ccc(O[C@@H]2O[C@H](CO)[C@H](O)[C@H](O)[C@H]2O)cc1", "note": "[p-nitrophenyl-β-D-galactoside]", "values": [{"measurement": "Inhibition of the positive reactivity in the sandwich assay (in words)", "setting": "[1]", "value": "inhibited"}]}
{"molecule": "p-nitrophenyl-α-D-galactoside [p-nitrophenyl α-D-galactoside]", "values": [{"measurement": "Inhibition of the positive reactivity in the sandwich assay (in words)", "setting": "[1]", "value": "did not show any inhibition"}]}
{"molecule": "B1", "values": [{"measurement": "Binding to carcinoma cell lines", "setting": "carcinoma cell lines", "value": "marked"}]}
